Test results: patent publication US7009045B2 (priority 2000, dated 2006)

Test system: Candida famata regulatory mutants able to overproduce riboflavin
Test: Sensitivity to Co^+2 ions, solid Burkholder medium (Table 16)
Type: cell-based
Design: key: +++: strong growth; ++: weak growth; —: absence of growth
Method: The sensitivity of the regulatory mutants of the yeast C. famata which overproduce riboflavin in iron rich medium probably due to defects in genes regulating repression (repression mutants), to different ions of heavy metals was studied. For this, the analyzed strains were streaked on the YPD plates and then were replica-plated on Burkholder synthetic medium containing leucine (40 μg/ml). The C.famata mutants L20105-40-1-11, L20105-40-1-17, L20105-3-2-1, L20105-3-2-8 and L20105-3-2-12 (all contained leu2 marker) accumulated 80–100 μg riboflavin/ml. The mutants #75, 4-48, 2-5 produced much higher amounts of riboflavin (200–250 μg/ml) but were prototrophs for leucine synthesis. Strain #75 was characterized by retarded growth comparing with other mutants. The strains VKM Y-9 (wild type) and L20105 (leu2) were used as the control strains.

[Cl-].[Cl-].[Co+2] [CoCl2]
growth (#2-5, Co^+2 1.25 μg/ml): +++ | growth (#2-5, Co^+2 2.5 μg/ml): ++ | growth (#2-5, Co^+2 5.0 μg/ml): — | growth (#2-5, Co^+2 6.25 μg/ml): — | growth (#2-5, Co^+2 7.5 μg/ml): — | growth (#2-5, Co^+2 8.75 μg/ml): — | growth (#2-5, Co^+2 10 μg/ml): — | growth (#2-5, Co^+2 11.25 μg/ml): — | growth (#2-5, Co^+2 12.5 μg/ml): — | growth (#4-48, Co^+2 1.25 μg/ml): +++ | growth (#4-48, Co^+2 2.5 μg/ml): ++ | growth (#4-48, Co^+2 3.75 μg/ml): — | growth (#4-48, Co^+2 5.0 μg/ml): — | growth (#4-48, Co^+2 6.25 μg/ml): — | growth (#4-48, Co^+2 7.5 μg/ml): — | growth (#4-48, Co^+2 8.75 μg/ml): — | growth (#4-48, Co^+2 10 μg/ml): — | growth (#4-48, Co^+2 11.25 μg/ml): — | growth (#4-48, Co^+2 12.5 μg/ml): — | growth (#75, Co^+2 1.25 μg/ml): ++ | growth (#75, Co^+2 3.75 μg/ml): — | growth (#75, Co^+2 5.0 μg/ml): — | growth (#75, Co^+2 6.25 μg/ml): — | growth (#75, Co^+2 7.5 μg/ml): — | growth (#75, Co^+2 8.75 μg/ml): — | growth (#75, Co^+2 10 μg/ml): — | growth (#75, Co^+2 11.25 μg/ml): — | growth (#75, Co^+2 12.5 μg/ml): — | growth (L20105 (leu2), Co^+2 1.25 μg/ml): +++ | growth (L20105 (leu2), Co^+2 2.5 μg/ml): +++ | growth (L20105 (leu2), Co^+2 3.75 μg/ml): +++ | growth (L20105 (leu2), Co^+2 5.0 μg/ml): +++ | growth (L20105 (leu2), Co^+2 6.25 μg/ml): +++ | growth (L20105 (leu2), Co^+2 7.5 μg/ml): +++ | growth (L20105 (leu2), Co^+2 8.75 μg/ml): +++ | growth (L20105 (leu2), Co^+2 10 μg/ml): +++ | growth (L20105 (leu2), Co^+2 11.25 μg/ml): ++ | growth (L20105 (leu2), Co^+2 12.5 μg/ml): ++ | growth (L20105-3-2-1, Co^+2 1.25 μg/ml): +++ | growth (L20105-3-2-1, Co^+2 2.5 μg/ml): ++ | growth (L20105-3-2-1, Co^+2 5.0 μg/ml): — | growth (L20105-3-2-1, Co^+2 6.25 μg/ml): — | growth (L20105-3-2-1, Co^+2 7.5 μg/ml): — | growth (L20105-3-2-1, Co^+2 8.75 μg/ml): — | growth (L20105-3-2-1, Co^+2 10 μg/ml): — | growth (L20105-3-2-1, Co^+2 11.25 μg/ml): — | growth (L20105-3-2-1, Co^+2 12.5 μg/ml): — | growth (L20105-3-2-8, Co^+2 1.25 μg/ml): +++ | growth (L20105-3-2-8, Co^+2 2.5 μg/ml): ++ | growth (L20105-3-2-8, Co^+2 6.25 μg/ml): — | growth (L20105-3-2-8, Co^+2 7.5 μg/ml): — | growth (L20105-3-2-8, Co^+2 8.75 μg/ml): — | growth (L20105-3-2-8, Co^+2 10 μg/ml): — | growth (L20105-3-2-8, Co^+2 11.25 μg/ml): — | growth (L20105-3-2-8, Co^+2 12.5 μg/ml): — | growth (L20105-3-2-9, Co^+2 1.25 μg/ml): +++ | growth (L20105-3-2-9, Co^+2 2.5 μg/ml): ++ | growth (L20105-3-2-9, Co^+2 5.0 μg/ml): — | growth (L20105-3-2-9, Co^+2 6.25 μg/ml): — | growth (L20105-3-2-9, Co^+2 7.5 μg/ml): — | growth (L20105-3-2-9, Co^+2 8.75 μg/ml): — | growth (L20105-3-2-9, Co^+2 10 μg/ml): — | growth (L20105-3-2-9, Co^+2 11.25 μg/ml): — | growth (L20105-3-2-9, Co^+2 12.5 μg/ml): — | growth (L20105-3-2-12, Co^+2 1.25 μg/ml): +++ | growth (L20105-3-2-12, Co^+2 2.5 μg/ml): ++ | growth (L20105-3-2-12, Co^+2 6.25 μg/ml): — | growth (L20105-3-2-12, Co^+2 7.5 μg/ml): — | growth (L20105-3-2-12, Co^+2 8.75 μg/ml): — | growth (L20105-3-2-12, Co^+2 10 μg/ml): — | growth (L20105-3-2-12, Co^+2 11.25 μg/ml): — | growth (L20105-3-2-12, Co^+2 12.5 μg/ml): — | growth (L20105-40-1-11, Co^+2 1.25 μg/ml): +++ | growth (L20105-40-1-11, Co^+2 2.5 μg/ml): ++ | growth (L20105-40-1-11, Co^+2 5.0 μg/ml): — | growth (L20105-40-1-11, Co^+2 6.25 μg/ml): — | growth (L20105-40-1-11, Co^+2 7.5 μg/ml): — | growth (L20105-40-1-11, Co^+2 8.75 μg/ml): — | growth (L20105-40-1-11, Co^+2 10 μg/ml): — | growth (L20105-40-1-11, Co^+2 11.25 μg/ml): — | growth (L20105-40-1-11, Co^+2 12.5 μg/ml): — | growth (VKM Y-9, Co^+2 1.25 μg/ml): +++ | growth (VKM Y-9, Co^+2 2.5 μg/ml): +++ | growth (VKM Y-9, Co^+2 3.75 μg/ml): +++ | growth (VKM Y-9, Co^+2 5.0 μg/ml): +++ | growth (VKM Y-9, Co^+2 6.25 μg/ml): +++ | growth (VKM Y-9, Co^+2 7.5 μg/ml): +++ | growth (VKM Y-9, Co^+2 8.75 μg/ml): +++ | growth (VKM Y-9, Co^+2 10 μg/ml): +++ | growth (VKM Y-9, Co^+2 11.25 μg/ml): +++ | growth (VKM Y-9, Co^+2 12.5 μg/ml): +++
